Common to all, as to type: cell-based, human
The test system of experiment [1] is MM cell lines ARP1, ARK, MM.1S, MM.1R and U266. In words: MTS cell growth assay, all tested MM cell lines. Particulars: 0 to 1 mM, 1 or 3 days. The protocol: (§1) MM cell lines ARP1, ARK, MM.1S, MM.1R and U266 were maintained in RPMI-1640 medium supplemented with 10% fetal bovine serum, 100 U/ml penicillin and 100 μg/ml streptomycin at 37° C. and 5% CO2 Primary MM cells and MM BMSCs were isolated from bone marrow aspirates of myeloma patients. PBMCs were obtained from healthy volunteers. The study was approved by the Institutional Review Board at The University of Texas M.D. Anderson Cancer Center. Anti-caspase-3, caspase-9, PARP, Bim, XIAP, cyclin D1, pp 70S6K (Thr389) and p27(Kip1) antibodies were purchased from Cell Signaling. Anti-bcl-2, Bc1-XL, Akt, pAkt (Thr 308), pAkt (Ser 473), p70S6K and β-actin antibodies were purchased from Santa Cruz. Compound A was dissolved in DMSO at 10 mM as stock solution. Dexamethasone and Propidium iodide (PI) were purchased from Sigma-Aldrich. Recombinant human IL6 was purchased from R&D Systems. FITC conjugated Annexin V was obtained from Invitrogen.
All experiments were performed in triplicate.
(A). Five MM cell lines ARP1, ARK, MM.1S, MM.1R and U266 were cultured in the presence of 0 to 1 mM compound A. Cells were harvested after 1 day or 3 days of treatment. Compound A induced MM cell apoptosis were measured by Annexin V staining as described in Materials and Methods. (B). Same MM cell lines were treated with 0 to 1 mM compound A for 1 or 3 days. Cell growths were assessed by MTS assay. (C). […]
In general terms: Formazan colour is commonly taken as a measure of viable cells.

Experiment [2] has the same test system. Nature of the experiment: Annexin V apoptosis assay, MM cell lines.
Description: Briefly, MM cells were cultured in 24-well plates and treated with 0 to 1 mM final concentrations of compound A for 24 or 72 hours. The cells were washed twice with cold PBS and resuspended in Annexin V binding buffer (Invitrogen). MM cells were stained with FITC-conjugated Annexin V and propidium iodide (PI) for 15 min at room temperature. Apoptotic cells were determined as Annexin V positive cells.
To evaluate the effect of compound A on myeloma cells, MM cell lines ARP1, ARK, MM.1S, MM.1R and U266 were treated with different doses of compound A for 24 hours or 72 hours. Compound A induced MM cells apoptosis were measured as described in Materials and Methods.
Five MM cell lines ARP1, ARK, MM.1S, MM.1R and U266 were cultured in the presence of 0 to 1 mM compound A. Cells were harvested after 1 day or 3 days of treatment. Compound A induced MM cell apoptosis were measured by Annexin V staining as described in Materials and Methods. […] Same MM cell lines were treated with 0 to 1 mM compound A for 1 or 3 days. […] Representative histograms of primary MM cells treated with compound A. (D). […] Cells were treated with different doses of compound A for 1 day.
For experiment [3], the system named is MM cell lines ARP1, MM.1S and MM.1R. In words: Apoptosis with or without IL-6 addition. The settings on record: 10 μM compound A, rhIL-6. The procedure: IL-6 is an important survival cytokine for MM (Klein B, Zhang X G, Jourdan M, et al. Interleukin-6 is the central tumor growth factor in vitro and in vivo in multiple myeloma. Eur Cytokine Netw. 1990; 1 (4):193-201; Gado K, Domjan G, Hegyesi H, Falus A. Role of INTERLEUKIN-6 in the pathogenesis of multiple myeloma. Cell Biol Int. 2000; 24 (4):195-209). […] For this purpose, different MM cell lines ARP1, MM.1S and MM.1R were cultured with or without recombinant hIL-6 (final concentration […]) and treated with or without 10 μM compound A for 2 days. As a positive control, MM.1S cells were treated with 40 μg/ml of dexamethasone with or without hIL-6 addition for the same period of time.
MM cell lines ARP1, MM.1S and MM.1R were cultured with 10 μM compound A for 3 days. rhIL-6 were added to final concentration of 5 ng/ml. As a positive control, MM.1S cells were treated with 40 μg/ml dexamethasone in the presence of 5 ng/ml of rhIL6 for the same time. Cells apoptosis rate was measured by annexin V staining. (B). Same MM cells were co-cultured with or without MM BMSC, and treated with 10 μM of compound A for 1 day. As a positive control, MM.1S cells were cocultured with or without BMSC and treated with 40 μg/ml dexamethasone for 1 day. CD138+ MM cells apoptosis rate was measured by Annexin V staining.

The test system of experiment [4] is ARP1 cells. Nature of the experiment: Cell cycle analysis (PI, flow cytometry). The settings on record: ARP1, 1 μM, 24 hours. The procedure:
MM cell lines ARP1, MM.1S and MM.1R were cultured with or without 1 μM compound A for 24 hours. Then, cells were harvested and permeabilized in 70% ethanol at 4° C. for overnight, and incubated with 50 μg/ml PI and 20 μg/ml RNase A for 15 min. DNA content was analyzed by flow cytometry and FlowJo software.
To study the mechanism of compound A induced MM cells growth inhibition and apoptosis, it was examined whether compound A treatment affects MM cell cycle.
(A). Representative histogram of ARP1 treated with 1 μM compound A for 1 day. (B). […] Cell cycle was tested as described.
For orientation: In flow cytometry, cells or beads pass a laser one at a time.

The test system of experiment [5] is p27 (Kip1) and cyclin D1 in MM cells. Nature of the experiment: Immunoblotting, cell cycle regulators. The settings on record: 10 μM compound A. The protocol:
as §1
(A). […] Compound A induced activation and cleavage of caspase-3, caspase-9 and PARP is shown. (B). Same MM cells treated with 10 μM compound A were lysed for western blotting. (C) RP1 cells were treated with 10 μM compound A for 1, 6, 12 and 24 hours.
On the technique in general: Immunoblotting shows a protein as a band on a membrane.

Experiment [6] has as its system BimS, XIAP and Bc1-XL in MM cells. In words: Immunoblotting, apoptosis regulatory factors. The settings on record: 10 μM compound A. The procedure: as §1
Next, the expressions of apoptosis regulatory factors was tested. […] Bim is a pro-apoptotic factor belonging to Bc1-2 family (O'Connor L, Strasser A, O'Reilly L A, et al. Bim: a novel member of the Bc1-2 family that promotes apoptosis. EMBO J. 1998; 17 (2):384-395). Bim has three major isoforms generated by alternative splicing, BimEL, BimL and BimS. The shortest form BimS is the most cytotoxic isoform (Weber A, Paschen S A, Heger K, et al. BimS-induced apoptosis requires mitochondrial localization but not interaction with anti-apoptotic Bel-2 proteins. J. Cell Biol. 2007; 177 (4):625-636). Previous work has shown that the transcription of Bim is regulated by the forkhead transcription factor FKHR-L1, a downstream effector of PI3K (Dijkers P F, Medema R H, Lammers J W, Koenderman L, Coffer P J. Expression of the pro-apoptotic Bc1-2 family member Bim is regulated by the forkhead transcription factor FKHR-L1. Curr Biol. 2000; 10 (19):1201-1204). […] Thus, compound A induced MM cell apoptosis may be caused by up-regulation of cytotoxic BimS and down-regulation of anti-apoptotic XIAP and Bc1-XL.
(A). […]

One compound from US20130310352A1, “DEXAMETHASONE COMBINATION THERAPY” (priority 2010, published 2013) can be followed below.

Some results are limits rather than exact numbers.

`Nc1cc(C(F)(F)F)c(-c2cc(N3CCOCC3)nc(N3CCOCC3)n2)cn1` [compound A, 5-(2,6-di-morpholin-4-yl-pyrimidin-4-yl)-4-trifluoromethyl-pyridin-2-ylamine]: the “MM cells growth inhibition” value in experiment [1] is “dose dependent growth inhibition”. For the same compound, in experiment [2] (0 to 1 mM, 24 hours or 72 hours, Annexin V), the MM cells apoptosis entry is “in both a dose dependent and a time dependent manner”. In experiment [2] (24 hours, P<0.05 compared with control), the “concentration inducing significant apoptosis in all tested MM cell lines” value was not below 10 µM. Also, the “effect of IL6 addition on compound A induced MM cell apoptosis” value in experiment [3] is on record as “did not affect”. In experiment [4], the G1 phase cells entry is “increased” and the S phase cells result is listed as “decreased”. Also, in experiment [5], the “cyclin D1 expression” value is recorded as “down-regulated” and the “p27 (Kip1) protein expression” value is on record as “up-regulated”. In experiment [6], the Bc1-XL expression entry was “down-regulated”, the BimS expression entry is recorded as “up-regulated” and the XIAP expression entry is recorded as “down-regulated”.
